Calls of active or inactive are those of the source.
Tests used:
[1] = biological target: Nucleotide-binding oligomerization domain-containing protein 2 (Homo sapiens, UniProt Q9HC29); experiment: inhibition of NOD2-driven NF-kB reporter – cell-based, luminescence, uHTS, HEK293 (AID 1566); type: functional
HEK293 [2] = experiment: cells; type: functional, cell-based; conditions: Homo sapiens
HEK293 [3] = experiment: inhibition of NOD1-driven NF-kB reporter – cell-based, luminescence, uHTS, primary screen (AID 1578); type: functional; conditions: Homo sapiens
HEK293 [4] = experiment: cells; type: functional, cell-based; conditions: Homo sapiens; remark: listed apart in the source
HEK293 [5] = experiment: cells; type: functional, cell-based; conditions: Homo sapiens; remark: listed apart in the source
[6] = biological target: Dual specificity tyrosine-phosphorylation-regulated kinase 1A (Rattus norvegicus, UniProt Q63470); type: biochemical, Homo sapiens
HEK293 [7] = experiment: NOD2 signaling inhibitors in MDP-stimulated cells, cell-based, uHTS, luminescence (AID 2001); type: functional; conditions: Homo sapiens
[8] = biological target: Beta-2 adrenergic receptor (Homo sapiens, UniProt P07550); experiment: ADRB2 activation measured by internalization – cell-based, FAP fluorogen, flow cytometry, cherry pick 1, dose response (AID 588763); type: functional
Sequence of Beta-2 adrenergic receptor (P07550 whole entry): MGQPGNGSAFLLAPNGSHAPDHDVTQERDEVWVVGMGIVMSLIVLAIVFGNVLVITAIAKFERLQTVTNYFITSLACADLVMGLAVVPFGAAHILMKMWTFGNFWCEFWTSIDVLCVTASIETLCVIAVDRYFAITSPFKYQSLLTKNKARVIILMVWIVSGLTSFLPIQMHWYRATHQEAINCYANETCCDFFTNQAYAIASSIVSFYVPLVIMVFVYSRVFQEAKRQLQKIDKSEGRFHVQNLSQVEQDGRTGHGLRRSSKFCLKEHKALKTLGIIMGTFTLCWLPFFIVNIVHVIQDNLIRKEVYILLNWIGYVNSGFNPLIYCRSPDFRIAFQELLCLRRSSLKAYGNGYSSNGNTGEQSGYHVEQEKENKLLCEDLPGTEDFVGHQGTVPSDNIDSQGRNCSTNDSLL

Sequence of Nucleotide-binding oligomerization domain-containing protein 2 (Q9HC29 whole entry, the tested form may be a part): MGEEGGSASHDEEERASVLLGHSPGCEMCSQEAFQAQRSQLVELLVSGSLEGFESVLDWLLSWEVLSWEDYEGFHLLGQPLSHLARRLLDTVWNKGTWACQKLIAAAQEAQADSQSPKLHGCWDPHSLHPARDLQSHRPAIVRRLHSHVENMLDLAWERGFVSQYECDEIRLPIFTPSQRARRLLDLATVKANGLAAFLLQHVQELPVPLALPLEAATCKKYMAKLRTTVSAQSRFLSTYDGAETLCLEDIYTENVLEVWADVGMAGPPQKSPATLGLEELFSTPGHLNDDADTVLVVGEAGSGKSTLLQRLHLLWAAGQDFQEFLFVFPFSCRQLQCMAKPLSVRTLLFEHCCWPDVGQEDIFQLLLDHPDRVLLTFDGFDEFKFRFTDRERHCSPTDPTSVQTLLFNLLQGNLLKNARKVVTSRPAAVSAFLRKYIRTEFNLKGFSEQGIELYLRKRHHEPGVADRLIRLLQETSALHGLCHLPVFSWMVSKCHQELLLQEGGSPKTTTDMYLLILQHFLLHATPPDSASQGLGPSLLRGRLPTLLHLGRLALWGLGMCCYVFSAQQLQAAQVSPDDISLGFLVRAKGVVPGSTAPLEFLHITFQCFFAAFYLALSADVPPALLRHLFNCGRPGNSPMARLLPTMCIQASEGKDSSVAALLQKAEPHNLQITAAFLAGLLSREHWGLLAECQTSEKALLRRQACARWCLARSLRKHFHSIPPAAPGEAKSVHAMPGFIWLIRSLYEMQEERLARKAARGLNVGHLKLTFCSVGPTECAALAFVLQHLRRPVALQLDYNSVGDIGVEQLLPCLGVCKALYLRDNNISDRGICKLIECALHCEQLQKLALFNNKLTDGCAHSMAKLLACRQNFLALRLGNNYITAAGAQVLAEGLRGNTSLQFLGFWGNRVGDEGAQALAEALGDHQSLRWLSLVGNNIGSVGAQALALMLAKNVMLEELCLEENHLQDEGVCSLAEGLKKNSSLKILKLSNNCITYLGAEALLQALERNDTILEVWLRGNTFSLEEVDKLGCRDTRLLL

Row | SMILES | EC50 [1] | IC50 (HEK293 [2]) | EC50 (HEK293 [3]) | IC50 (HEK293 [4]) | IC50 (HEK293 [5]) | AC50 [6] | IC50 (HEK293 [7]) | EC50 [8]
1 | CN(C)S(=O)(=O)c1cccc(NC(S)=Nc2cccc3cnccc23)c1 | 9.33 µM (active) | 3.39 µM (active) | 10.6 µM (active) | 13.4 µM (active) | > 20 µM (inactive) | 3.86 µM (active) | 4.64 µM (active) | –
2 | CCN(CC)S(=O)(=O)c1cc(NC(=O)C2=COCCO2)ccc1Cl | – | – | – | – | – | – | – | 0.038 µM (active)

Source: ChEMBL document CHEMBL1201862, “PubChem BioAssay data set” (2004)
